Laboratory results taken from US20210290784A1, “POSITRON EMISSION TOMOGRAPHY (PET) RADIOTRACERS FOR IMAGING MACROPHAGE COLONY-STIMULATING FACTOR 1 RECEPTOR (CSF1R) IN NEUROINFLAMMATION” (The Johns Hopkins University, priority 2018, published 2021).

Key:
[1] = target: T1, CSF1R (Mus musculus, UniProt P09581); conditions: i.p.-LPS mice, blocker 1 mg/kg i.p., 5 min before radiotracer
T1 sequence (P09581 20-977): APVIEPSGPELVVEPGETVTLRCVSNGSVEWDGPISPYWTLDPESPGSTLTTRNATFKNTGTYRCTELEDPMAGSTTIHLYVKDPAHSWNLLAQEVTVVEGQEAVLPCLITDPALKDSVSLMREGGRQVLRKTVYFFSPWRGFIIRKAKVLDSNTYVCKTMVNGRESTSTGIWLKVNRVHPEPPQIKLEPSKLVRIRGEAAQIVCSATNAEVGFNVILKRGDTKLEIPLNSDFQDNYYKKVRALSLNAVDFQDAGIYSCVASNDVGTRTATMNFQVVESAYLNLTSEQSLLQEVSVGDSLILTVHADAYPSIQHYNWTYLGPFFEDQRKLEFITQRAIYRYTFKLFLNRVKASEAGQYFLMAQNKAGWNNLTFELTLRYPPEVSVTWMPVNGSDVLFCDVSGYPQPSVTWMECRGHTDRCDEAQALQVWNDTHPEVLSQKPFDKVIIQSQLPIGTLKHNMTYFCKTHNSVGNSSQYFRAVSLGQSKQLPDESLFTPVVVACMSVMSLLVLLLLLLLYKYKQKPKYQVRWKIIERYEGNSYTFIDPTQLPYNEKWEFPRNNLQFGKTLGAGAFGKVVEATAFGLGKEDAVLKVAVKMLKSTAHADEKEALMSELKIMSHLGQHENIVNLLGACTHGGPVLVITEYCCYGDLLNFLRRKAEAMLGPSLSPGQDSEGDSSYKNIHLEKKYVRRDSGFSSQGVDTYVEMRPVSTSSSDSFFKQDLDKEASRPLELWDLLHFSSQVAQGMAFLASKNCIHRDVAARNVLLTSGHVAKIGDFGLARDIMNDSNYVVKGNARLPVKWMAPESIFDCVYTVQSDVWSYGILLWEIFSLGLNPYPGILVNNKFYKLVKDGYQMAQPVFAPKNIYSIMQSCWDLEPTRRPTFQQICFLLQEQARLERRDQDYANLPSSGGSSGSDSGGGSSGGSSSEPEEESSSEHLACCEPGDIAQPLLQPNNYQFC

[2] = target: CSF1R (Homo sapiens, UniProt P07333); assay: CSF1R competition binding assay, KinomeScan, DiscoverX; set-up: purchased DiscoverX; conditions: commercial assay
[3] = target: T2, CSF1R Human RTK Kinase (Homo sapiens, UniProt P07333); assay: CSF1R Human RTK Kinase, Enzymatic Radiometric Assay, Eurofins; format: biochemical; conditions: commercial assay
T2 construct: purchased Eurofins

[4] = system: microglia; conditions: chronic treatment of mice; cited from earlier work
[5] = target: T3, TSPO (Rattus norvegicus, UniProt P16257); conditions: LPS-treated rats; cited from earlier work
T3 construct: host or cells: LPS-treated rats (cited study)

Chain of CSF1R (Homo sapiens, UniProt P07333) (P07333 20-972, species assumed): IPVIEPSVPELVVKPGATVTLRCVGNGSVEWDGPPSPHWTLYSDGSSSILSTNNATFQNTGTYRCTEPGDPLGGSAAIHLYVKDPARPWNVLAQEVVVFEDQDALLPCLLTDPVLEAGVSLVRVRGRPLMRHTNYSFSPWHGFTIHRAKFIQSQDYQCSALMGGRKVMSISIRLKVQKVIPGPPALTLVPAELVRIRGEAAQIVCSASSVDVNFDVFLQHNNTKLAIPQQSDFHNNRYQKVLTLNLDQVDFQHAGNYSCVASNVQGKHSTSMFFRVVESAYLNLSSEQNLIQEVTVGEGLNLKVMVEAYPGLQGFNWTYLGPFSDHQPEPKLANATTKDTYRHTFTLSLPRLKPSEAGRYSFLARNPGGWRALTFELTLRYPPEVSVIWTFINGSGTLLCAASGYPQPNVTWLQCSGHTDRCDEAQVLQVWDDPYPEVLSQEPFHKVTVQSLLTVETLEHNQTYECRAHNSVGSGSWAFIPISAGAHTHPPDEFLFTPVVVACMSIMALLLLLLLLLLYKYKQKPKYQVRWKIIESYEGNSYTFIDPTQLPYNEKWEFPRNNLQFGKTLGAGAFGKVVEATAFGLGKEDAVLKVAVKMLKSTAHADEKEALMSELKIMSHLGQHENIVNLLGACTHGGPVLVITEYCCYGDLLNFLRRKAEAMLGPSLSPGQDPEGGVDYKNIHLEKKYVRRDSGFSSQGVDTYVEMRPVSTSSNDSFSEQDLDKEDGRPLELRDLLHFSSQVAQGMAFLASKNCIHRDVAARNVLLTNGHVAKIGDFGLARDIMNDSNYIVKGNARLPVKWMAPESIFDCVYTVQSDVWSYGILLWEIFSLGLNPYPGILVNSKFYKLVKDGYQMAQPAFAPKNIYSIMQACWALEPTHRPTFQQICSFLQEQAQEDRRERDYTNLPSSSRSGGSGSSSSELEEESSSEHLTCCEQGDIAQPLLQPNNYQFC
T2 sequence (P07333 20-972): as the sequence (P07333 20-972, species assumed) above

Compound: CN1CCN(c2ccc(NC(=O)c3ccc(C#N)o3)c(N3CCCCC3)c2)CC1 [1a JHU11744, 5-Cyano-N-(4-(4-methylpiperazin-1-yl)-2-(piperidin-1-yl)phenyl)furan-2-carboxamide]
- blocking of [11C]CPPC SUVR uptake by CSF1R inhibitor [1]: significantly decreased the uptake to the control level

Compound: CN1CCN(c2ccc(NC(=O)c3cc(C#N)co3)c(N3CCCCC3)c2)CC1 [1g JHU11765, 4-Cyano-N-(4-(4-methylpiperazin-1-yl)-2-(piperidin-1-yl)phenyl)furan-2-carboxamide]
- Kd [2]: > 1000 nM

Compound: CN1CCN(c2ccc(NC(=O)c3coc(C#N)c3)c(N3CCCCC3)c2)CC1 [1h JHU11766, 5-Cyano-N-(4-(4-methylpiperazin-1-yl)-2-(piperidin-1-yl)phenyl)furan-3-carboxamide]
- Kd [2]: > 1000 nM

Compound: CN1CCN(c2ccc(NC(=O)c3cccc(F)n3)c(N3CCCCC3)c2)CC1 [1i JHU11767, 6-Fluoro-N-(4-(4-methylpiperazin-1-yl)-2-(piperidin-1-yl)phenyl)picolinamide]
- Kd [2]: 30 nM

Compound: N#Cc1ccc(C(=O)Nc2ccc(N3CCN(CCF)CC3)cc2N2CCCCC2)o1 [1k JHU11763, 5-Cyano-N-(4-(4-(2-fluoroethyl)piperazin-1-yl)-2-(piperidin-1-yl)phenyl)furan-2-carboxamide]
- IC50 [3]: 12.9 nM
- Kd [2]: 32 nM

Compound: CC1CCN(c2cc(N3CCN(CCF)CC3)ccc2NC(=O)c2cc(C#N)c[nH]2)CC1 [1l JHU11764, 4-Cyano-N-(4-(4-(2-fluoroethyl)piperazin-1-yl)-2-(4-methylpiperidin-1-yl)phenyl)-1H-pyrrole-2-carboxamide]
- IC50 [3]: 3.14 nM

Compound: FC(F)(F)c1ccc(CNc2ccc(Cc3c[nH]c4ncc(Cl)cc34)cn2)cn1 [PLX3397, pexidartinib]
- depletion of microglia [4]: 90%

Compound: CCC(C)N([11CH3])C(=O)c1cc2ccccc2c(-c2ccccc2Cl)n1 (stereo not drawn) [[^11C]PK11195]
- BP value [5]: 0.47
